Assay results as given in patent US20110166078A1, “OLIGOSACCHARIDE COMPOUNDS FOR USE IN MOBILISING STEM CELLS” (ENDOTIS PHARMA, priority 2008, published 2011).

What was measured:
[1] = test system: hematopoietic stem cells (LSK cells) in blood; assay: Hematopoietic stem cell mobilisation, sequential G-CSF, AMD3100 and compound 240; assay type: in vivo; conditions: compound 240 i.v. 15 mg/kg 30 min after AMD3100 s.c. 5 mg/kg, after G-CSF 2.5 μg s.c.; C57BL/6 mice; FIG. 5
Procedure: During cancer treatment, patients receive injections of a cytokine (G-CSF) mobilising stem cells. These stem cells are then collected from the peripheral blood using an apheresis machine. Apheresis is usually performed for several days until enough stem cells have been collected to support treatment with high-dose chemotherapy and/or radiotherapy. In the experiments of the present invention, different doses (5, 15 and 30 mg/kg body weight (bw)) and administration routes (intraperitoneal, intravenous and subcutaneous) were tested along time course experiments in mice (30 min, 1 h, 3 h and 5 h).
C57BL/6 mice (8-10 weeks old, obtained from Jackson Laboratory, USA) were housed 15 days in the CEA/DSV/iRCM animal facilities. Animal care was in accordance with French Government procedures (Services Veterinaires de la Sante et de la Production Animale, Ministere de l'Agriculture, France).
i) intravenously: Anesthetized mice were placed on their left side. Injection of 100 μl of compound was performed with insulin syringe into the retro-orbital sinus of the right eye of mice. […]
Two months aged-C57BL/6 mice were injected s.c. with 2.5 μg of G-CSF twice a day for 2 days. […] White blood cells were counted and labeled with lineage-PE-Cy7 (L), Sca-PE (S), and cKit-APC (K) antibodies for data acquisition by cytometry. […]

[2] = test system: FGF-2-induced NHDF (Normal Human Dermal Fibroblast) cell proliferation; assay: FGF-2-induced NHDF proliferation assay; assay type: cell-based; conditions: compound 0.1 to 30 μM
Procedure: The activities of the compounds of the present invention were tested using a proliferation assay, such as the one described by N. Ali et al., J Pharmacol Sci, 2005, 98, 130-141. A defined number of cells is seeded in each well of a culture plate. In order to stimulate cell proliferation, a growth factor is added in some wells, while others remain unstimulated (basal proliferation conditions). To monitor the effects of substances of interest (oligosaccharides compounds according to the present invention) on basal and growth factor-induced cell proliferation, substances of interest are added at different concentrations (i.e. 0.1, 0.3, 1, 3, 10 or 30 μM) in presence or absence of the growth factor, respectively. After an incubation period of 24 hours, the total number of cells is estimated in all samples (generally through an indirect method, such as incorporation of radioactivity into the newly synthesised DNA or colorimetric assays based on cellular enzyme activities or metabolite production). The total number of cells for the control sample in which no substance of interest nor growth factor have been added is set to 1. The total number of cells in all the other samples is compared to this value in order to obtain the relative proliferation index.
Typically, cells are seeded in 48 or 96-well plates. After 2 h (i.e. the time required for cells to adhere to the support) the normal culture media is replaced by a minimal essential culture media in which cells are grown for 24 h (starvation period). This step is used to reduce cell growth (cell metabolism is slowed down in order to better visualise the growth factor stimulation effect) before adding an angiogenic protein, such as a growth factor i.e. FGF-2 or PDGF-β. No growth factor is added in basal proliferation conditions (independently of the presence or absence of the oligosaccharide of the present invention). […]
Following addition of the angiogenic protein (growth factor) over a 24 h stimulation period, a commercial reagent containing a substrate for a cellular enzyme is added and incubated for couple of hours. The degradation of the substrate by the enzyme leads to the production of a coloured product which is titrated by absorbance measurement. […]
In the following experiments the effects of compounds 240 and 241 (concentrations from 0.1 to 30 μM) were evaluated on FGF-2-induced NHDF (Normal Human Dermal Fibroblast) cell proliferation. […]

SMILES: C#CCCCOC1OC(COS(=O)(=O)[O-])C(OC2OC(C(=O)[O-])C(OC3OC(COS(=O)(=O)[O-])C(OC4OC(C(=O)[O-])C(OC5OC(COS(=O)(=O)[O-])C(OC6OC(C(=O)[O-])C(OC7OC(COS(=O)(=O)[O-])C(OC8OC(C(=O)[O-])C(OCc9ccccc9)C(OCc9ccccc9)C8OS(=O)(=O)[O-])C(OCc8ccccc8)C7NS(=O)(=O)[O-])C(OCc7ccccc7)C6OS(=O)(=O)[O-])C(OCc6ccccc6)C5NS(=O)(=O)[O-])C(OCc5ccccc5)C4OS(=O)(=O)[O-])C(OCc4ccccc4)C3NS(=O)(=O)[O-])C(OCc3ccccc3)C2OS(=O)(=O)[O-])C(OCc2ccccc2)C1NS(=O)(=O)[O-].[Na+].[Na+].[Na+].[Na+].[Na+].[Na+].[Na+].[Na+].[Na+].[Na+].[Na+].[Na+].[Na+].[Na+].[Na+].[Na+] (stereo not drawn) [Compound 240]
- HSCs mobilized, times more than with G-CSF+AMD3100 combination [1]: About 3 times
- inhibition of FGF-2-induced fibroblast proliferation ([2]; FGF-2 5 ng/ml, FIGS. 6-7): inhibit FGF-2-induced fibroblast proliferation (starting in the micromolar range)
- basal NHDF proliferation ([2]; control conditions, no growth factor): did not seem to be affected
